Converted amounts (≈) assume the structure as drawn.
Legend:
Streptococcus sp. = assay: Gram differentiation with CTAB, tester bacteria luminescence; assay type: cell-based; conditions: +CTAB (3 ppm), 2 hrs 37 C, read after 60 min
Method: (§1) Gram-positive bacteria are more sensitive than Gram-negative bacteria to low concentrations of the cationic detergent CTAB. Overnight grown cultures of different strains of infecting bacteria were washed and suspended in saline. About 10^5 cells/well were aliquoted in 0.1 mL Medium 1 (Davis, 0.1% glucose, 25 ppm YE) in microtiter plates with or without 3 ppm of CTAB. After 2 hrs at 37 degrees Centigrade/Celsius?, 0.15 mL of Medium 2 (+10 ng/mL autoinducer) were added to each well, together with 10^6 cells/mL lux-cells. Luminescence was recorded after 60 min.

P. aeroginosa [1] = assay: as above; assay type: cell-based; conditions: +CTAB (3 ppm), 2 hrs 37 C, read after 60 min
Method: as §1

E. coli (W4100) = assay: as above; assay type: cell-based; conditions: +CTAB (3 ppm), 2 hrs 37 C, read after 60 min
Method: as §1

S. aureus [2] = assay: as above; assay type: cell-based; conditions: +CTAB (3 ppm), 2 hrs 37 C, read after 60 min
Method: as §1

S. typhi (772) = assay: as above; assay type: cell-based; conditions: +CTAB (3 ppm), 2 hrs 37 C, read after 60 min
Method: as §1

[3] = test system: infecting bacteria of urine samples; assay: antibiotics disc inhibition zone, urine samples (standard analysis); assay type: cell-based
Method: A standard analysis (urine culture colony count) was performed to evaluate bacterial load (Table 5a) and antibiotic susceptibility (Table 5b).

[4] = test system: infecting bacteria of urine samples; assay: BLT antibiotic susceptibility of urine samples; assay type: cell-based; parameters: BLT (luminescence): unit not given here; conditions: for BLT (luminescence): 3 hrs 37 C, concentrations given in Table 5; as to antibiotic susceptibility of urine samples: key: R = resistant; S = susceptible
Method: Six fresh urine samples were obtained from a local clinic and examined for bacteriuria (>10^5 cells/mL urine) and the antibiotic susceptibility of the infecting bacteriuria. A tube containing a an antibiotic mixture that would eliminate all infecting bacteria but not effect the lux cells (Ampicillin, Kanamycin, Tetracyclin, and Chloramphenicol) served as a control.
Each urine sample was diluted in Medium 1 to yield a final concentration of 3%. 0.1 mL of the diluted samples were then incubated for 3 hrs. at 37 degrees Celsius in a microtitre plate, with or without an antimicrobial substance at the concentrations given in Table 5).
An equal volume of Medium 2 containing 10 ng/ml autoinducer and supplemented with 10^6 of the lux cells was then added to each well. The microtiter plate was then incubated at 28 degrees/Celsius and the luminescence was measured using a plate reader luminometer.
Luminescence was measured in the absence of antibiotics, in the presence of a mixture of antibiotics and in the presence of a single antibiotic from the mixture.
When the ratio of the luminescence measured in the presence of the single antibiotic to that measured in the presence of the antibiotic mix exceeds a second predetermined constant (e.g. 3) then the infecting bacteria are […] to the antibiotic.

P. aeroginosa [5] = assay: overnight disk diffusion test; assay type: cell-based; conditions: disk 30 ppm, 16 hrs 37 C
Method: (§2) Infecting bacteria (10^6 cells/ml from overnight grown cultures) were spread on LA plates on which 15 mm disks, saturated with various antibiotics, had been placed. After incubating the plates at 37 degrees Celsius for 16 hrs the zone of inhibition was determined for each strain. (Abbreviations used in FIG. 1a and Table 1a: CAP—Chloramphenicol; KAN—Kanamycin; AMP—Ampicillin; CEP—Cephamezin GEN—Gentamycin).

S. typhimirium (772) = assay: overnight disk diffusion test; assay type: cell-based; conditions: disk 30 ppm, 16 hrs 37 C
Method: as §2

E. coli (W4110) = assay: overnight disk diffusion test; assay type: cell-based; conditions: disk 30 ppm, 16 hrs 37 C
Method: as §2

S. typhi = assay: microbe, parasite or virus in culture; assay type: cell-based
S. aureus [6] = assay: BLT (bioluminescence test) MIC determination

Question: `CCCCCCCCCCCCCCCC[N+](C)(C)C.[Br-]` [CTAB, Cetyltrimethylammonium bromide] was tested. Which “luminescence of tester bacteria” value (Streptococcus sp.) did it give?
Answer: The value was 10,154 LU.

Question: What about the “luminescence of tester bacteria” value (P. aeroginosa [1]) of the same compound?
Answer: The value was 111 LU.

Question: And the “luminescence of tester bacteria” value (E. coli (W4100))?
Answer: Its value is 52 LU.

Question: What about the “luminescence of tester bacteria” value (S. aureus [2]) of the same compound?
Answer: Its value is 80,405 LU.

Question: And the “luminescence of tester bacteria” value (S. typhi (772))?
Answer: Its value is 64 LU.

Question: What does the source list for `O=C(N[C@H](CO)[C@H](O)c1ccc([N+](=O)[O-])cc1)C(Cl)Cl` [Chloramphenicol]?
Answer: Antibiotics disc inhibition zone ([3]; urine sample 1, 30 ppm): 5 mm; Antibiotics disc inhibition zone ([3]; urine sample 2, 30 ppm): 4 mm; Antibiotics disc inhibition zone ([3]; urine sample 3, 30 ppm): 7 mm; Antibiotics disc inhibition zone ([3]; urine sample 4, 30 ppm): 5 mm; Antibiotics disc inhibition zone ([3]; urine sample 6, 30 ppm): 6 mm; antibiotic susceptibility of urine samples ([4]; urine sample 1): S; BLT (luminescence) ([4]; urine sample 1, 3% urine): 62; antibiotic susceptibility of urine samples ([4]; urine sample 2): S; BLT (luminescence) ([4]; urine sample 2, 3% urine): 46; antibiotic susceptibility of urine samples ([4]; urine sample 3): S; BLT (luminescence) ([4]; urine sample 3, 3% urine): 36; antibiotic susceptibility of urine samples ([4]; urine sample 4): S; BLT (luminescence) ([4]; urine sample 4, 3% urine): 31.2; antibiotic susceptibility of urine samples ([4]; urine sample 5): S; BLT (luminescence) ([4]; urine sample 5, 3% urine): 13; antibiotic susceptibility of urine samples ([4]; urine sample 6): S; BLT (luminescence) ([4]; urine sample 6, 3% urine): 41; zone of inhibition (P. aeroginosa [5]): 15 mm; zone of inhibition (S. typhimirium (772)): 30 mm; zone of inhibition (E. coli (W4110)): 25 mm; LU, fold increase over control (no antibiotics added) (S. typhi; 0.19 ppm): 0.7; LU, fold increase over control (no antibiotics added) (S. typhi; 0.39 ppm): 0.72; LU, fold increase over control (no antibiotics added) (S. typhi; 0.78 ppm): 0.63; LU, fold increase over control (no antibiotics added) (S. typhi; 1.5 ppm): 0.74; LU, fold increase over control (no antibiotics added) (S. typhi; 3.1 ppm): 1.9; LU, fold increase over control (no antibiotics added) (S. typhi; 6.25 ppm): 3.61; LU, fold increase over control (no antibiotics added) (S. typhi; 12.5 ppm): 5.42; LU, fold increase over control (no antibiotics added) (S. typhi; 25 ppm): 6.84; LU, fold increase over control (no antibiotics added) (S. typhi; 50 ppm): 5.84; MIC (S. typhi; Salmonella enterica, TYPHI, lowest concentration giving two-fold increase of tester luminescence above control): ~3 µg/mL (≈ 9.28 µM); LU, fold increase over control (no antibiotics added) (S. aureus [6]; 0.781 ppm): 0.8; LU, fold increase over control (no antibiotics added) (S. aureus [6]; 1.562 ppm): 1.3; LU, fold increase over control (no antibiotics added) (S. aureus [6]; 3.125 ppm): 2.8; LU, fold increase over control (no antibiotics added) (S. aureus [6]; 6.25 ppm): 5.2; LU, fold increase over control (no antibiotics added) (S. aureus [6]; 12.5 ppm): 7.2; LU, fold increase over control (no antibiotics added) (S. aureus [6]; 25 ppm): 11.5; LU, fold increase over control (no antibiotics added) (S. aureus [6]; 50 ppm): 17.6; LU, fold increase over control (no antibiotics added) (S. aureus [6]; 100 ppm): 70.1; MIC (S. aureus [6]; Staphylococcus aureus): ~1.5 µg/mL (≈ 4.64 µM)

Reference: patent US20110097745A1, “Method For Detecting Microbes” (priority 2007, published 2011)
